We go through two molecules from publication PMC9898749, “Cryo-EM structure of the plant nitrate transporter AtCLCa reveals characteristics of the anion-binding site and the ATP-binding pocket” (The Journal of Biological Chemistry, 2022).

One data set has as its target T1, AtCLCa (Arabidopsis thaliana, UniProt P92941).
T1 construct: gene CLC-A; HEK293F (BacMam); purified in GDN; homodimer; modelled residues 53-626, 636-737, 744-766
T1 sequence (P92941 1-775): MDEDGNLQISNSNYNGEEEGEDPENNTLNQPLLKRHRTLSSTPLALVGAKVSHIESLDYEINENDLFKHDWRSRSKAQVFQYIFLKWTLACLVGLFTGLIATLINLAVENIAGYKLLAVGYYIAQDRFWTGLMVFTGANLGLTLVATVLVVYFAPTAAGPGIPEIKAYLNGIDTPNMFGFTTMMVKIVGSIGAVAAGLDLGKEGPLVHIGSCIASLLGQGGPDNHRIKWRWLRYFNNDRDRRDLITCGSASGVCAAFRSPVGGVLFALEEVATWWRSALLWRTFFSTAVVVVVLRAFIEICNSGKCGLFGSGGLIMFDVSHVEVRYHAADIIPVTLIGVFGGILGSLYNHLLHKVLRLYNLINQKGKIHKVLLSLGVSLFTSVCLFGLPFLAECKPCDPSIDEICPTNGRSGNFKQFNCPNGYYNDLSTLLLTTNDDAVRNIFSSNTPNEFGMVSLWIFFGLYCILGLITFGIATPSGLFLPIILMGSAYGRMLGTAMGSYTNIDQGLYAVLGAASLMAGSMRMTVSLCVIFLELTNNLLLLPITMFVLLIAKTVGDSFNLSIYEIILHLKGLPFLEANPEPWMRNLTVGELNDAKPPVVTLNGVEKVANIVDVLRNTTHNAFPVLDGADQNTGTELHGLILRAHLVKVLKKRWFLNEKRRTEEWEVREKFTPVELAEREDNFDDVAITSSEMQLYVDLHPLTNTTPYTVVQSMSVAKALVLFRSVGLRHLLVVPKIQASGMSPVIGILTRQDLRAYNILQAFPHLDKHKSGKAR
Put plainly: cryo-EM structure, […] Å. Conditions: 150 mM NaNO3; GDN detergent; pH 7.5; three anion sites (external, central, internal) in transport pathway; identity assigned from buffer; nitrates placed by docking overlapping EM densities. It counts as binding.

Data set [1] concerns the molecule itself. The data set can be described thus: cryo-EM structure; AtCLCa 4.2 mg/ml in 20 mM Hepes pH 7.5, 150 mM NaNO3, 0.06% GDN; endogenous Mg2+-ATP bound; C2 symmetry imposed; 2.8 Å.

Usually stoichiometry N stands for a count of units in the complex or per binding partner.

As to `O=[N+]([O-])O` [nitrate], the “cryo-EM structure, 2.8 Å” value on AtCLCa was “The ions are most likely nitrate because we purified the protein in a buffer”.

B1: Arabidopsis thaliana CLCa (natural protein, UniProt P92941 1-775, looked up)
chain: MDEDGNLQISNSNYNGEEEGEDPENNTLNQPLLKRHRTLSSTPLALVGAKVSHIESLDYEINENDLFKHDWRSRSKAQVFQYIFLKWTLACLVGLFTGLIATLINLAVENIAGYKLLAVGYYIAQDRFWTGLMVFTGANLGLTLVATVLVVYFAPTAAGPGIPEIKAYLNGIDTPNMFGFTTMMVKIVGSIGAVAAGLDLGKEGPLVHIGSCIASLLGQGGPDNHRIKWRWLRYFNNDRDRRDLITCGSASGVCAAFRSPVGGVLFALEEVATWWRSALLWRTFFSTAVVVVVLRAFIEICNSGKCGLFGSGGLIMFDVSHVEVRYHAADIIPVTLIGVFGGILGSLYNHLLHKVLRLYNLINQKGKIHKVLLSLGVSLFTSVCLFGLPFLAECKPCDPSIDEICPTNGRSGNFKQFNCPNGYYNDLSTLLLTTNDDAVRNIFSSNTPNEFGMVSLWIFFGLYCILGLITFGIATPSGLFLPIILMGSAYGRMLGTAMGSYTNIDQGLYAVLGAASLMAGSMRMTVSLCVIFLELTNNLLLLPITMFVLLIAKTVGDSFNLSIYEIILHLKGLPFLEANPEPWMRNLTVGELNDAKPPVVTLNGVEKVANIVDVLRNTTHNAFPVLDGADQNTGTELHGLILRAHLVKVLKKRWFLNEKRRTEEWEVREKFTPVELAEREDNFDDVAITSSEMQLYVDLHPLTNTTPYTVVQSMSVAKALVLFRSVGLRHLLVVPKIQASGMSPVIGILTRQDLRAYNILQAFPHLDKHKSGKAR
notes: AtCLCa, Arabidopsis thaliana chloride channel protein CLC-a, nitrate/proton antiporter; NCBI NP_198905.1; full length (residues 1-775; modelled residues 53-626, 636-737, 744-766); A C-terminal 3C cleavage site stands between the protein and the strep tag; Copurified with endogenous Mg2+-ATP; purified in 150 mM sodium nitrate; also called AtCLCa; source: HEK293F cells, BacMam system, purified …
As for B1, the “stoichiometry N” value in data set [1] was found to be 2.
